Measurements published in the NIST ThermoML archive (doi:10.1021/je0503554).
Values joined by “and” are separate entries in the source; they are usually repeats but may differ in a detail not shown here. Identical values can stand only once. Numbers after ± are expanded uncertainties.

Test: activity coefficient (dimensionless); of the first substance listed, at infinite dilution; xn = mol fraction of the nth substance listed
Settings: Liquid, Chromatography, x1 = 0

With `CCCCCC=O` [hexanal] + CCCCCC[n+]1ccn(C)c1.O=S(=O)([N-]S(=O)(=O)C(F)(F)F)C(F)(F)F the activity coefficient (333.15 K) was 1.2 ± 0.077, the activity coefficient (343.55 K) was 1.21 ± 0.078 and the activity coefficient (354.05 K) was 1.23 ± 0.079. For the same compound, the activity coefficient (364.45 K) was 1.24 ± 0.08 and the activity coefficient (374.95 K) was 1.26 ± 0.081.
`CCCCCC` [hexane] + CCCCCC[n+]1ccn(C)c1.O=S(=O)([N-]S(=O)(=O)C(F)(F)F)C(F)(F)F gave an activity coefficient (301.85 K) of 8.03 ± 0.55, an activity coefficient (312.25 K) of 7.65 ± 0.52 and an activity coefficient (322.85 K) of 7.41 ± 0.51. The activity coefficient (333.25 K) was 6.94 ± 0.47 and the activity coefficient (343.75 K) was 6.74 ± 0.46.
In the case of `CO` [methanol] + CCCCCC[n+]1ccn(C)c1.O=S(=O)([N-]S(=O)(=O)C(F)(F)F)C(F)(F)F, the activity coefficient (301.95 K) is reported as 1.46 ± 0.1, the activity coefficient (312.45 K) is reported as 1.34 ± 0.09 and the activity coefficient (323.05 K) is reported as 1.22 ± 0.08. For the same compound, the activity coefficient (333.45 K) was 1.1 ± 0.07, the activity coefficient (343.95 K) was 0.99 ± 0.06 and the activity coefficient (354.45 K) was 0.93 ± 0.06.
Work on `CCCC(=O)OC` [methyl butanoate] + CCCCCC[n+]1ccn(C)c1.O=S(=O)([N-]S(=O)(=O)C(F)(F)F)C(F)(F)F yielded an activity coefficient (322.75 K) of 0.868 ± 0.055, an activity coefficient (333.25 K) of 0.874 ± 0.056 and an activity coefficient (343.65 K) of 0.877 ± 0.056. It also gave an activity coefficient (354.15 K) of 0.884 ± 0.056.
In the case of `CCCCCCC(=O)OC` [methyl heptanoate] + CCCCCC[n+]1ccn(C)c1.O=S(=O)([N-]S(=O)(=O)C(F)(F)F)C(F)(F)F, the activity coefficient (354.15 K) is reported as 1.6 ± 0.11, the activity coefficient (364.65 K) is reported as 1.52 ± 0.1 and the activity coefficient (375.15 K) is reported as 1.44 ± 0.09. The activity coefficient (385.65 K) was 1.38 ± 0.09.
`CCCCCC(=O)OC` [methyl hexanoate] + CCCCCC[n+]1ccn(C)c1.O=S(=O)([N-]S(=O)(=O)C(F)(F)F)C(F)(F)F gave an activity coefficient (343.65 K) of 1.39 ± 0.09, an activity coefficient (354.15 K) of 1.35 ± 0.09 and an activity coefficient (364.65 K) of 1.29 ± 0.08. For the same compound, the activity coefficient (375.15 K) was 1.25 ± 0.08 and the activity coefficient (385.65 K) was 1.2 ± 0.08.
Work on `CCCCC(=O)OC` [methyl pentanoate] + CCCCCC[n+]1ccn(C)c1.O=S(=O)([N-]S(=O)(=O)C(F)(F)F)C(F)(F)F yielded an activity coefficient (322.75 K) of 1.04 ± 0.07, an activity coefficient (333.25 K) of 1.03 ± 0.06 and an activity coefficient (343.65 K) of 1.01 ± 0.06. It also gave an activity coefficient (354.15 K) of 0.99 ± 0.06.
With `CCC(=O)OC` [methyl propanoate] + CCCCCC[n+]1ccn(C)c1.O=S(=O)([N-]S(=O)(=O)C(F)(F)F)C(F)(F)F the activity coefficient (322.75 K) was 0.681 ± 0.046, the activity coefficient (333.25 K) was 0.683 ± 0.046 and the activity coefficient (343.65 K) was 0.685 ± 0.046. For the same compound, the activity coefficient (354.15 K) was 0.688 ± 0.046.
In the case of `CCCCCCCCC` [nonane] + CCCCCC[n+]1ccn(C)c1.O=S(=O)([N-]S(=O)(=O)C(F)(F)F)C(F)(F)F, the activity coefficient (307.05 K) is reported as 21.4 ± 1.5, the activity coefficient (312.35 K) is reported as 20.5 and 20.3 and the activity coefficient (322.85 K) is reported as 18.9 and 18.6.
`C=CCCCCCC` [oct-1-ene] + CCCCCC[n+]1ccn(C)c1.O=S(=O)([N-]S(=O)(=O)C(F)(F)F)C(F)(F)F showed an activity coefficient (301.95 K) of 8.83 ± 0.6, an activity coefficient (312.45 K) of 8.43 ± 0.58 and an activity coefficient (322.95 K) of 8.08 ± 0.55. For the same compound, the activity coefficient (333.45 K) was 7.66 ± 0.52, the activity coefficient (343.95 K) was 7.37 ± 0.5 and the activity coefficient (354.35 K) was 7.16 ± 0.49.
With `CCCCCCCC=O` [octanal] + CCCCCC[n+]1ccn(C)c1.O=S(=O)([N-]S(=O)(=O)C(F)(F)F)C(F)(F)F the activity coefficient (354.05 K) was 1.9 ± 0.13, the activity coefficient (364.45 K) was 1.92 ± 0.13 and the activity coefficient (374.95 K) was 1.94 ± 0.13. The activity coefficient (385.45 K) was 1.96 ± 0.13 and the activity coefficient (395.95 K) was 1.97 ± 0.13.
Work on `CCCCCCCC` [octane] + CCCCCC[n+]1ccn(C)c1.O=S(=O)([N-]S(=O)(=O)C(F)(F)F)C(F)(F)F yielded an activity coefficient (300.95 K) of 15.2 ± 1, an activity coefficient (312.25 K) of 14.3 ± 0.98 and an activity coefficient (322.85 K) of 13.2 ± 0.9. For the same compound, the activity coefficient (333.25 K) was 12.2 ± 0.84 and the activity coefficient (343.75 K) was 11.5 ± 0.78.
`CCCCCO` [pentan-1-ol] + CCCCCC[n+]1ccn(C)c1.O=S(=O)([N-]S(=O)(=O)C(F)(F)F)C(F)(F)F showed an activity coefficient (333.25 K) of 2.18 ± 0.15, an activity coefficient (343.75 K) of 2 ± 0.14 and an activity coefficient (354.05 K) of 1.8 ± 0.12. For the same compound, the activity coefficient (364.55 K) was 1.63 ± 0.11 and the activity coefficient (374.95 K) was 1.51 ± 0.1.
`CCCCC=O` [pentanal] + CCCCCC[n+]1ccn(C)c1.O=S(=O)([N-]S(=O)(=O)C(F)(F)F)C(F)(F)F gave an activity coefficient (301.75 K) of 1.11 ± 0.07, an activity coefficient (312.25 K) of 1.1 ± 0.07 and an activity coefficient (322.85 K) of 1.08 ± 0.068. For the same compound, the activity coefficient (333.35 K) was 1.06 ± 0.067, the activity coefficient (343.55 K) was 1.05 ± 0.066 and the activity coefficient (354.05 K) was 1.03 ± 0.065. For the same compound, the activity coefficient (364.45 K) was 1.01 ± 0.063 and the activity coefficient (374.95 K) was 0.99 ± 0.062.
For `CCCCC` [pentane] + CCCCCC[n+]1ccn(C)c1.O=S(=O)([N-]S(=O)(=O)C(F)(F)F)C(F)(F)F, the activity coefficient (301.95 K) was 6.26 ± 0.43, the activity coefficient (312.45 K) was 5.44 ± 0.37 and the activity coefficient (323.05 K) was 5.33 ± 0.36. The activity coefficient (333.45 K) was 4.72 ± 0.32 and the activity coefficient (343.95 K) was 4.09 ± 0.28.
For `CCCCCc1ccccc1` [pentylbenzene] + CCCCCC[n+]1ccn(C)c1.O=S(=O)([N-]S(=O)(=O)C(F)(F)F)C(F)(F)F, the activity coefficient (364.65 K) was 3.38 ± 0.23, the activity coefficient (375.15 K) was 3.37 ± 0.23 and the activity coefficient (385.65 K) was 3.37 ± 0.23.
For `CCCO` [propan-1-ol] + CCCCCC[n+]1ccn(C)c1.O=S(=O)([N-]S(=O)(=O)C(F)(F)F)C(F)(F)F, the activity coefficient (312.45 K) was 2.15 ± 0.15, the activity coefficient (323.05 K) was 1.86 ± 0.13 and the activity coefficient (333.45 K) was 1.63 ± 0.11. For the same compound, the activity coefficient (343.95 K) was 1.43 ± 0.09 and the activity coefficient (354.45 K) was 1.27 ± 0.08.
With `CC(C)O` [propan-2-ol] + CCCCCC[n+]1ccn(C)c1.O=S(=O)([N-]S(=O)(=O)C(F)(F)F)C(F)(F)F the activity coefficient (301.65 K) was 1.93 ± 0.13, the activity coefficient (312.25 K) was 1.68 ± 0.11 and the activity coefficient (322.75 K) was 1.49 ± 0.1. The activity coefficient (333.25 K) was 1.33 ± 0.09, the activity coefficient (343.75 K) was 1.21 ± 0.08 and the activity coefficient (354.05 K) was 1.09 ± 0.07.
Compound `CCC=O` [propanal] + CCCCCC[n+]1ccn(C)c1.O=S(=O)([N-]S(=O)(=O)C(F)(F)F)C(F)(F)F has an activity coefficient (301.75 K) of 0.453 ± 0.036, an activity coefficient (312.25 K) of 0.45 ± 0.036 and an activity coefficient (322.85 K) of 0.444 ± 0.036. The activity coefficient (333.35 K) was 0.439 ± 0.035.
With `CCCc1ccccc1` [propylbenzene] + CCCCCC[n+]1ccn(C)c1.O=S(=O)([N-]S(=O)(=O)C(F)(F)F)C(F)(F)F the activity coefficient (333.35 K) was 2.1 ± 0.14, the activity coefficient (343.85 K) was 2.08 ± 0.14 and the activity coefficient (354.25 K) was 2.03 ± 0.14. For the same compound, the activity coefficient (364.65 K) was 2.02 ± 0.14, the activity coefficient (375.15 K) was 2 ± 0.14 and the activity coefficient (385.65 K) was 1.96 ± 0.13.
In the case of `Cc1ccccc1` [toluene] + CCCCCC[n+]1ccn(C)c1.O=S(=O)([N-]S(=O)(=O)C(F)(F)F)C(F)(F)F, the activity coefficient (307.05 K) is reported as 1.04 ± 0.07, the activity coefficient (312.35 K) is reported as 1.04 ± 0.07 and the activity coefficient (322.85 K) is reported as 1.06 ± 0.07. It also gave an activity coefficient (333.35 K) of 1.06 ± 0.07 and an activity coefficient (343.85 K) of 1.08 ± 0.07.
For `ClC(Cl)Cl` [trichloromethane] + CCCCCC[n+]1ccn(C)c1.O=S(=O)([N-]S(=O)(=O)C(F)(F)F)C(F)(F)F, the activity coefficient (301.75 K) was 0.67 ± 0.045, the activity coefficient (301.85 K) was 0.67 ± 0.045 and the activity coefficient (312.25 K) was 0.68 ± 0.046. For the same compound, the activity coefficient (312.45 K) was 0.68 ± 0.046, the activity coefficient (322.85 K) was 0.69 ± 0.046 and the activity coefficient (323.05 K) was 0.7 ± 0.047. For the same compound, the activity coefficient (333.45 K) was 0.71 ± 0.047 and the activity coefficient (343.95 K) was 0.72 ± 0.048.
With `CCCCCCCCCCC` [undecane] + CCCCCC[n+]1ccn(C)c1.O=S(=O)([N-]S(=O)(=O)C(F)(F)F)C(F)(F)F the activity coefficient (312.35 K) was 37.3 ± 2.5, the activity coefficient (322.85 K) was 34.1 ± 2.3 and the activity coefficient (333.35 K) was 30 ± 2. It also gave an activity coefficient (343.75 K) of 27.7 ± 1.9 and an activity coefficient (354.25 K) of 26 ± 1.8.
